From patent US20240208968A1, “ALPHA V BETA 6 AND ALPHA V BETA 1 INTEGRIN INHIBITORS AND USES THEREOF” (DiCE Molecules SV, Inc., priority 2021, published 2024) come the findings set out here.

One test addresses αvβ1 (Homo sapiens, UniProt P05556+P06756). Briefly: Solid Phase Integrin αvβ1 Assay. Type of test: binding. In short, it runs like this: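 Wells coated with 1 µg/mL recombinant TGFb1-LAP and blocked with 2% BSA/TBST, 1 mM MnCl2; αvβ1 (added at 0.2 µg/mL) and compound incubated 90 min at room temperature. Bound integrin detected by streptavidin-HRP (20 min) and TMB after Mn-containing washes; IC50 by four-parameter logistic fit.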

The next test concerns the target αvβ6 (Homo sapiens, UniProt P06756+P18564). The experiment in a line: Solid Phase Integrin αvβ6 Assay. Format: binding. In short, it runs like this:
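Plates coated with 1 μg/mL recombinant TGFb1-LAP; compounds and αvβ6 (0.2 μg/mL diluted stock) incubated 1 h at room temperature in 2% BSA/TBST with 1 mM MnCl2. Bound integrin detected with streptavidin-HRP and TMB; IC50 from four-parameter logistic fits.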

The structures appear in SMILES notation. pIC50: −log10 of the molar value.

αvβ6, sequence (P06756 31-992 limits assumed): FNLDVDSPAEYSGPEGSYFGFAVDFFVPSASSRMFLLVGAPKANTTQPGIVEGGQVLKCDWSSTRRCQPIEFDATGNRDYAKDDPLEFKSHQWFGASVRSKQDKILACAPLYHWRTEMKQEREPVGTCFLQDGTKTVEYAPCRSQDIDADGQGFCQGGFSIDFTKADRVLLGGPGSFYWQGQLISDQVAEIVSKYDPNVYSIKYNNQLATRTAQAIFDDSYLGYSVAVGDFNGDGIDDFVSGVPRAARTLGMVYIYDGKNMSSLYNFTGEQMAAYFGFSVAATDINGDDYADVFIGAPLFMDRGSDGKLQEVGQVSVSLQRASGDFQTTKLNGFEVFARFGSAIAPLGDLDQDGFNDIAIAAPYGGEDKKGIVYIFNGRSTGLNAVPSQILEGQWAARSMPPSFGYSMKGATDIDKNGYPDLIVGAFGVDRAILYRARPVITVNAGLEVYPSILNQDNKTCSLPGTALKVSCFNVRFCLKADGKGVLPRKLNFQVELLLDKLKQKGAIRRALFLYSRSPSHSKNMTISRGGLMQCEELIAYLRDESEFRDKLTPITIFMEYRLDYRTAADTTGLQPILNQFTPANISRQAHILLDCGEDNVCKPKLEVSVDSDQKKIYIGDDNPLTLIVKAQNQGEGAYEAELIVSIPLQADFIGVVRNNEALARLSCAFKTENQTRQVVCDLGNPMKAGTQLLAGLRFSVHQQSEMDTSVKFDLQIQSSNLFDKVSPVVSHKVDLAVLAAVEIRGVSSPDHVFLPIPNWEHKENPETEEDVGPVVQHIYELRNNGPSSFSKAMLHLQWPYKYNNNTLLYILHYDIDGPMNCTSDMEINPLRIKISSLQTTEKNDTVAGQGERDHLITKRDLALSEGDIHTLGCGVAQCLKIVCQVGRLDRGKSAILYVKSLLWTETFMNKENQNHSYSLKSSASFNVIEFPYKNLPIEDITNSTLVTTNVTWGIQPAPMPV
αvβ6, sequence (P18564 22-707 limits assumed): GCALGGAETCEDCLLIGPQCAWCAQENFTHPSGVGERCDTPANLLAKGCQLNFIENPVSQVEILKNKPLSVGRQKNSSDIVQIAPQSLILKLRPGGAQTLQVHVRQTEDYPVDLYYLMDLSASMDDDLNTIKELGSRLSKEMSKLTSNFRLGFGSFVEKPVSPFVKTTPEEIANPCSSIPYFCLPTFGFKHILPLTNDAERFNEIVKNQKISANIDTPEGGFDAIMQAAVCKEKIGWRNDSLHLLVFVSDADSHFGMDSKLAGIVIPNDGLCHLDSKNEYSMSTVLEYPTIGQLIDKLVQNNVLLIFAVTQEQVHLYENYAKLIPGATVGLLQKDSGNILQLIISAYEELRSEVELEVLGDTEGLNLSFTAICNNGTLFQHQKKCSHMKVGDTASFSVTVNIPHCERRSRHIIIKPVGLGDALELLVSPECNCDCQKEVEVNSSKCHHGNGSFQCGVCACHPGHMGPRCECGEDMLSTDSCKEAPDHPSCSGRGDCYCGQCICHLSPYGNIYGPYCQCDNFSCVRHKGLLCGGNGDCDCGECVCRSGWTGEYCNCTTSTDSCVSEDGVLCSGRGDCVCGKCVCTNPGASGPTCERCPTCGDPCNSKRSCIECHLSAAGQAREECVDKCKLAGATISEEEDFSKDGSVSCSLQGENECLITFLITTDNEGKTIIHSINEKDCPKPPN
αvβ1, sequence (P06756 31-992 limits assumed): as the sequence (P06756 31-992 limits assumed) above
αvβ1, sequence (P05556 21-728 limits assumed): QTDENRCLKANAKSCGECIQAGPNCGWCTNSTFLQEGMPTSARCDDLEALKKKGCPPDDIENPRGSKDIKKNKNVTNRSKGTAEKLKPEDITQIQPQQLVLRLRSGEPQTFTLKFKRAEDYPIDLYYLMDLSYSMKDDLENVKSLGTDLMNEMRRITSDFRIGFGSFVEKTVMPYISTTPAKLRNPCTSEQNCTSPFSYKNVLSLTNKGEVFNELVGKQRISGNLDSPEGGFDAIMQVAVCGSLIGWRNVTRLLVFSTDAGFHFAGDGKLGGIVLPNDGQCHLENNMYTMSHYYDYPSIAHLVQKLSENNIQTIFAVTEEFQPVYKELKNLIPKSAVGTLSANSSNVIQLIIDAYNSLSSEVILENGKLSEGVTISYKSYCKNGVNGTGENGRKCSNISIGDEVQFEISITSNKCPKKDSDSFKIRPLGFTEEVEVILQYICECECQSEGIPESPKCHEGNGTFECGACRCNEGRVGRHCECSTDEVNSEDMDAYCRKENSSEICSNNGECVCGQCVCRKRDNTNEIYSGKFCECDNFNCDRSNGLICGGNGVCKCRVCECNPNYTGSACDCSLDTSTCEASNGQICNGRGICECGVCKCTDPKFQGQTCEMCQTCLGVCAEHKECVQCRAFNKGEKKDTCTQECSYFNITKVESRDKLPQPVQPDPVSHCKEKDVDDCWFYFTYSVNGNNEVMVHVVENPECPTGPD

For `O=C(O)C[C@H](NC(=O)[C@@H]1CCCN(CCCc2ccc3c(n2)NCCC3)C1)c1ccc2c(c1)C1(CC2)CC1` [Compound 541], the pIC50 against αvβ1 and against αvβ6 was > 7.00 in each case.

For `CN1CCc2cc(S(=O)(=O)N[C@@H](CNC(=O)[C@@H]3CCCN(CCCc4ccc5c(n4)NCCC5)C3)C(=O)O)ccc21` [Compound 542], the pIC50 was 6.00 to 7.00 against αvβ1 and > 7.00 at αvβ6.

In the case of `O=C(NC[C@H](NS(=O)(=O)c1cccc2c1CCC2)C(=O)O)[C@@H]1CCCN(CCCc2ccc3c(n2)NCCC3)C1` [Compound 543], the pIC50 against αvβ1 and against αvβ6 was > 7.00 each time.

`O=C(N[C@@H](CNC(=O)[C@@H]1CCCN(CCCc2ccc3c(n2)NCCC3)C1)C(=O)O)c1ccccc1` [Compound 544]: the pIC50 against αvβ1 and on αvβ6 was > 7.00 throughout.

As to `CC(C)(C(=O)N[C@@H](CNC(=O)[C@@H]1CCCN(CCCc2ccc3c(n2)NCCC3)C1)C(=O)O)c1ccccc1` [Compound 546], the pIC50 on αvβ1 and against αvβ6 was > 7.00 each time.

For the compound `O=C(NC[C@H](NC(=O)C1(c2ccccc2)CC1)C(=O)O)[C@@H]1CCCN(CCCc2ccc3c(n2)NCCC3)C1` [Compound 547], the negative logarithm of the IC50 (pIC50) at αvβ1 and on αvβ6 was > 7.00 each time.

Take `O=C(N[C@@H](CNC(=O)[C@@H]1CCCN(CCCc2ccc3c(n2)NCCC3)C1)C(=O)O)c1cccc2c1CCC2` [Compound 549]: the pIC50 against αvβ1 and at αvβ6 was > 7.00 each time.

With `C[C@@H]1CCN(CCCc2ccc3c(n2)NCCC3)C[C@@H]1C(=O)N[C@@H](CC(=O)O)c1ccccc1` [Compound 551], the values for the pIC50 against αvβ1 and at αvβ6 were 6.00 to 7.00 and > 7.00, respectively.

Regarding `C[C@H]1C[C@@H](C(=O)N[C@@H](CC(=O)O)c2ccccc2)CN(CCCc2ccc3c(n2)NCCC3)C1` [Compound 552], the pIC50 against αvβ1 and at αvβ6 was 6.00 to 7.00 in each case.

For the compound `C[C@@H]1C[C@@H](C(=O)N[C@@H](CC(=O)O)c2ccccc2)CN(CCCc2ccc3c(n2)NCCC3)C1` [Compound 553], the pIC50 on αvβ1 and at αvβ6 was 6.00 to 7.00 throughout.

In the case of `C[C@H]1CC[C@@H](C(=O)N[C@@H](CC(=O)O)c2ccccc2)CN1CCCc1ccc2c(n1)NCCC2` [Compound 554], the pIC50 is < 6.00 against αvβ1 and 6.00 to 7.00 against αvβ6.

For the compound `O=C(O)C[C@H](NC(=O)[C@]1(F)CCCN(CCCc2ccc3c(n2)NCCC3)C1)c1ccccc1` [Compound 555], the pIC50 against αvβ1 and against αvβ6 was 6.00 to 7.00 throughout.

Regarding `O=C(O)C[C@H](NC(=O)[C@@H]1CCCN(CCCc2ccc3c(n2)NCCC3)C1)c1ccccc1C1CC1` [Compound 556], the pIC50 at αvβ1 and against αvβ6 was 6.00 to 7.00 throughout.

With `O=C(O)C[C@H](NC(=O)[C@@H]1CCCN(CCCc2ccc3c(n2)NCCC3)C1)c1ccc(C2CC2)cc1` [Compound 557], the pIC50 on αvβ1 is < 6.00; against αvβ6, 6.00 to 7.00.

On to `O=C(O)C[C@H](NC(=O)[C@@H]1CCCN(CCCc2ccc3c(n2)NCCC3)C1)c1cccc(C2CC2)c1F` [Compound 559], for which the negative-log IC50 (pIC50) is < 6.00 against αvβ1 and 6.00 to 7.00 at αvβ6.

As to `O=C(NC[C@H](C(=O)O)c1cccc2c1CCC2)[C@@H]1CCCN(CCCc2ccc3c(n2)NCCC3)C1` [Compound 560], the pIC50 against αvβ1 and on αvβ6 was 6.00 to 7.00 throughout.

Turning to `O=C(NC[C@@H](C(=O)O)c1cccc2c1CCC2)[C@@H]1CCCN(CCCc2ccc3c(n2)NCCC3)C1` [Compound 561], the pIC50 against αvβ1 and against αvβ6 was > 7.00 in each case.

As for `O=C(NC[C@H](Nc1ncnc2c(C(F)(F)F)cccc12)C(=O)O)[C@@H]1CCCN(CCCc2ccc3c(n2)NCCC3)C1` [Compound 562], the pIC50 at αvβ1 and against αvβ6 was > 7.00 each time.

With `O=C(NC[C@H](Nc1ncncc1C(F)(F)F)C(=O)O)[C@@H]1CCCN(CCCc2ccc3c(n2)NCCC3)C1` [Compound 563], the pIC50 against αvβ1 and against αvβ6 was > 7.00 in each case.

`O=C(NC[C@H](C(=O)O)c1cccc(N2C[C@H]3CC[C@@H]2CO3)c1)[C@@H]1CCCN(CCCc2ccc3c(n2)NCCC3)C1` [Compound 565]: the negative logarithm of the IC50 (pIC50) against αvβ1 and on αvβ6 was > 7.00 throughout.

For `O=C(NC[C@H](C(=O)O)c1cccc(N2C[C@@H]3CC[C@H]2CO3)c1)[C@@H]1CCCN(CCCc2ccc3c(n2)NCCC3)C1` [Compound 566], the pIC50 at αvβ1 and against αvβ6 was > 7.00 in each case.

Consider `O=C(Nc1ccccc1)N[C@@H](CNC(=O)[C@@H]1CCCN(CCCc2ccc3c(n2)NCCC3)C1)C(=O)O` [Compound 567], for which the pIC50 at αvβ1 and against αvβ6 was > 7.00 in each case.

`CC1(C)CN(c2cccc([C@@H](CO[C@@H]3CCCN(CCCc4ccc5c(n4)NCCC5)C3)CC(=O)O)c2)CCO1` [Compound 568]: the pIC50 on αvβ1 and at αvβ6 was > 7.00 throughout.

Take `CC1(C)CN(c2cccc([C@H](CO[C@@H]3CCCN(CCCc4ccc5c(n4)NCCC5)C3)CC(=O)O)c2)CCO1` [Compound 569]: the pIC50 on αvβ1 and against αvβ6 was 6.00 to 7.00 in each case.

For the compound `CC1(C)CCCN(c2cccc([C@@H](CO[C@@H]3CCCN(CCCc4ccc5c(n4)NCCC5)C3)CC(=O)O)c2)C1` [Compound 570], the pIC50 at αvβ1 and at αvβ6 was > 7.00 each time.

In the case of `CC1(C)CCN(c2cccc([C@@H](CO[C@@H]3CCCN(CCCc4ccc5c(n4)NCCC5)C3)CC(=O)O)c2)CC1` [Compound 571], the pIC50 against αvβ1 and against αvβ6 was > 7.00 each time.

Consider `CC1(C)CCCN(c2cccc([C@H](CO[C@@H]3CCCN(CCCc4ccc5c(n4)NCCC5)C3)CC(=O)O)c2)C1` [Compound 572], for which the pIC50 against αvβ1 and against αvβ6 was > 7.00 each time.

On to `CC1(C)CCN(c2cccc([C@H](CO[C@@H]3CCCN(CCCc4ccc5c(n4)NCCC5)C3)CC(=O)O)c2)CC1` [Compound 573], for which the pIC50 at αvβ1 and against αvβ6 was 6.00 to 7.00 in each case.

On to `Cc1cc(C)n(-c2cccc([C@@H](CO[C@@H]3CCCN(CCCc4ccc5c(n4)NCCC5)C3)CC(=O)O)c2)n1` [Compound 574], for which the negative-log IC50 (pIC50) on αvβ1 and against αvβ6 was > 7.00 each time.

Turning to `Cc1cc(C)n(-c2cccc([C@H](CO[C@@H]3CCCN(CCCc4ccc5c(n4)NCCC5)C3)CC(=O)O)c2)n1` [Compound 575], the pIC50 on αvβ1 is 6.00 to 7.00; against αvβ6, > 7.00.

Take `Cc1cc(C(F)(F)F)nn1-c1cccc([C@@H](CO[C@@H]2CCCN(CCCc3ccc4c(n3)NCCC4)C2)CC(=O)O)c1` [Compound 576]: the pIC50 against αvβ1 and at αvβ6 was > 7.00 throughout.

For the compound `Cc1cc(C(F)(F)F)nn1-c1cccc([C@H](CO[C@@H]2CCCN(CCCc3ccc4c(n3)NCCC4)C2)CC(=O)O)c1` [Compound 577], the pIC50 at αvβ1 and against αvβ6 was > 7.00 in each case.

As to `CC1(C)CN(c2cc([C@@H](CO[C@@H]3CCCN(CCCc4ccc5c(n4)NCCC5)C3)CC(=O)O)ccc2F)CCO1` [Compound 578], the negative-log IC50 (pIC50) against αvβ1 and at αvβ6 was > 7.00 in each case.

For the compound `Cc1cc([C@@H](CO[C@@H]2CCCN(CCCc3ccc4c(n3)NCCC4)C2)CC(=O)O)cc(N2CCOC(C)(C)C2)c1` [Compound 579], the pIC50 at αvβ1 and against αvβ6 was > 7.00 each time.

As for `CC1(C)CN(c2cc([C@H](CO[C@@H]3CCCN(CCCc4ccc5c(n4)NCCC5)C3)CC(=O)O)ccc2F)CCO1` [Compound 580], the pIC50 at αvβ1 and on αvβ6 was > 7.00 throughout.

Regarding `Cc1cc([C@H](CO[C@@H]2CCCN(CCCc3ccc4c(n3)NCCC4)C2)CC(=O)O)cc(N2CCOC(C)(C)C2)c1` [Compound 581], the pIC50 against αvβ1 and on αvβ6 was 6.00 to 7.00 in each case.

For the compound `C[C@H]1OCCN(c2cccc([C@H](CC(=O)O)NC(=O)[C@@H]3CCCN(CCCc4ccc5c(n4)NCCC5)C3)c2)[C@H]1C` [Compound 582], the pIC50 against αvβ1 and against αvβ6 was > 7.00 throughout.

As for `C[C@@H]1OCCN(c2cccc([C@H](CC(=O)O)NC(=O)[C@@H]3CCCN(CCCc4ccc5c(n4)NCCC5)C3)c2)[C@@H]1C` [Compound 583], the negative logarithm of the IC50 (pIC50) against αvβ1 and against αvβ6 was > 7.00 in each case.

Regarding `C[C@@H]1OCCN(c2cccc([C@H](CC(=O)O)NC(=O)[C@@H]3CCCN(CCCc4ccc5c(n4)NCCC5)C3)c2)[C@H]1C` [Compound 584], the pIC50 at αvβ1 and at αvβ6 was > 7.00 each time.

In the case of `C[C@@H]1[C@@H](C)OCCN1c1cccc([C@H](CC(=O)O)NC(=O)[C@@H]2CCCN(CCCc3ccc4c(n3)NCCC4)C2)c1` [Compound 585], the negative-log IC50 (pIC50) against αvβ1 and on αvβ6 was > 7.00 in each case.

`Cc1cc(C)n(-c2cccc([C@H](CC(=O)O)NC(=O)[C@@H]3CCCN(CCCc4ccc5c(n4)NCCC5)C3)c2)c1` [Compound 586]: the pIC50 against αvβ1 and at αvβ6 was > 7.00 throughout.

As for `CC1(C)CN(c2cccc([C@H](CC(=O)O)NC(=O)[C@@H]3CCCN(CCCc4ccc5c(n4)NCCC5)C3)c2)CC(C)(C)C1` [Compound 587], the pIC50 against αvβ1 and against αvβ6 was > 7.00 throughout.

As for `O=C(NC[C@@H](Nc1ccccc1C1CC(F)(F)C1)C(=O)O)[C@@H]1CCCN(CCCc2ccc3c(n2)NCCC3)C1` [Compound 588], the pIC50 against αvβ1 and at αvβ6 was > 7.00 in each case.

Turning to `O=C(NC[C@@H](Nc1cccc(C2CC(F)(F)C2)c1)C(=O)O)[C@@H]1CCCN(CCCc2ccc3c(n2)NCCC3)C1` [Compound 589], the pIC50 on αvβ1 and against αvβ6 was > 7.00 in each case.

Regarding `O=C(NC[C@@H](Nc1cccnc1C1CC(F)(F)C1)C(=O)O)[C@@H]1CCCN(CCCc2ccc3c(n2)NCCC3)C1` [Compound 593], the pIC50 on αvβ1 and against αvβ6 was > 7.00 each time.

Regarding `CC1(C)CN(c2cccc([C@@H](CNC(=O)[C@@H]3CCCN(CCCc4ccc5c(n4)NCCC5)C3)C(=O)O)c2)CCO1` [Compound 595], the pIC50 on αvβ1 and on αvβ6 was > 7.00 in each case.
